Experimental data reported in PMC12259508, “Expediting multiple biological properties of main bioactive compounds of Mentha pulegium L” (AMB Express, 2025).
Values after ≈ are worked out from the molar mass of the structure shown. Where two headings read alike, the source gives them in different places.

Assays:
[1] = target: tyrosinase (Agaricus bisporus, UniProt C7FF04); set-up: method as in our previous study; settings: ref our previous study; cited from earlier work
[2] = target: T1, elastase (Sus scrofa, UniProt P00772); set-up: method as in our previous study; settings: ref our previous study, cited from earlier work
[3] = set-up: method as in Luís and Domingues [2021]; settings: ref Luís and Domingues [2021]; cited from earlier work
[4] = system: S. maltophilia; set-up: method as in Baygar ([2019]); settings: ref Baygar ([2019]); cited from earlier work
[5] = system: Streptococcus equi subsp. equi; set-up: method as in Nozohour and Jalilzadeh-amin [2021]; settings: ref Nozohour and Jalilzadeh-amin [2021]; cited from earlier work
[6] = system: P. aeruginosa, S. aureus, and K. pneumoniae; set-up: method as in Amalich et al. [2016]; settings: ref Amalich et al. [2016]; cited from earlier work
[7] = target: T2, α-amylase from Bacillus licheniformis (Bacillus licheniformis, UniProt P06278); assay: α-Amylase inhibitory assay (starch/DNS); format: biochemical; settings: mean ± SD, triplicate
T2 construct: purchased
Experimental: (§1) The α-glucosidase from Saccharomyces cerevisiae and the α-amylase from Bacillus licheniformis were also obtained from reliable commercial sources. Additional reagents were carefully selected from reputable suppliers. Mueller–Hinton agar was sourced from Biokar in Beauvais, France. All other chemicals used are of analytical grade.
Specifically, 250μL of the sample was mixed with an equal volume of α-amylase (240 U/mL) in a 0.02 M sodium phosphate buffer (SPB) (pH = 6.9). The mixtures were incubated at 37 °C for twenty minutes. Subsequently, 250 µL of a 1% starch solution in a 0.02 M SPB (pH = 6.9) was added to the reaction mixture, and the combination was allowed to sit at 37 °C for 15 min. One milliliter of dinitrosalicylic acid (DNS) was then introduced, and the blend was brought to a boil in a water bath for ten minutes. The reaction mixture was subsequently diluted with 2 mL of distilled water, and the absorbance was measured at 540 nm using an ultraviolet–visible spectrophotometer.

[8] = system: S. epidermidis; set-up: method as in Sonboli et al. ([2006]); settings: ref Sonboli et al. ([2006]); cited from earlier work
[9] = target: T1, elastase; assay: Elastase inhibitory assay; format: biochemical
Experimental: By adapting certain aspects, the methodology of this research is based on the protocol reported by Jeddi et al. (Jeddi et al. [2023]).
Then, 200 µL of an elastase solution prepared in Tris–HCl buffer (0.2 M, pH 8.0) was mixed with 50 µL of each sample. Following a 15-min incubation at 25 °C, 200 µL of N-succinyl-Ala-Ala-p-nitroanilide solution was added, and the reaction mixtures were homogenized. Absorbances were recorded at 410 nm after an additional 20-min incubation at 25 °C. […] Furthermore, the methodology described in this study should provide a valuable resource for future research assessing the effect of other natural compounds on elastase activity, thereby expanding our understanding of their beneficial properties.

[10] = target: T3, α-glucosidase from Saccharomyces cerevisiae (Saccharomyces cerevisiae, UniProt P53341); assay: α-Glucosidase inhibitory assay (pNPG); format: biochemical; settings: mean ± SD, triplicate
T3 construct: purchased
Experimental: as §1
Initially, 200 µL of the samples were mixed with 100 µL of 0.1 M SPB (pH = 6.7) containing 0.1 U/mL of α-glucosidase enzyme. The mixture was then incubated at 37 °C for ten minutes. One milligram of pNPG was dissolved in 0.1 ml of SPB (pH = 6.7). The activity of α-glucosidase was assessed by measuring the absorbance at 405 nm following the addition of 1 mL of 0.1 M Na2CO3 to the reaction mixture.

[11] = system: S. aureus; set-up: method as in Farhanghi et al. [2022]; settings: ref Farhanghi et al. [2022]; cited from earlier work
[12] = system: Escherichia coli ATCC 25922; assay: MIC and MBC determination, broth microdilution; format: cell-based; settings: for MBC: ATCC25922, 24 h, read-out: MBC Escherichia coli
Experimental: (§2) As mentioned before, the minimum inhibitory concentration (MIC) was established using the broth microdilution method. The minimum sample concentration required to destroy the bacteria is indicated by the minimum bactericidal concentration (MBC). The microdilution method, based on MIC determination, was similarly applied. After 24 h of incubation at 37 °C, […] of sample from each tube showing no apparent growth were inoculated on Tryptone Soja agar (Biokar, Beauvais, France). The MBC was determined as the lowest concentration showing no growth on the culture medium.

[13] = system: Listeria monocytogenes ATCC 13932; assay: MIC and MBC determination, broth microdilution; format: cell-based; settings: for MBC / MIC: Listeria monocytogenes; for MBC: ATCC13932, 24 h; for MIC Listeria monocytogenes: broth microdilution
Experimental: as §2

[14] = system: Staphylococcus aureus ATCC 29213; assay: MIC and MBC determination, broth microdilution; format: cell-based; settings: for MBC / MIC: Staphylococcus aureus; for MBC: ATCC29213, 24 h; for MIC Staphylococcus aureus: broth microdilution
Experimental: as §2

[15] = system: Pseudomonas aeruginosa ATCC 27853; assay: MIC and MBC determination, broth microdilution; format: cell-based; settings: for MBC: ATCC27853, 24 h, read-out: MBC Pseudomonas aeruginosa
Experimental: as §2

[16] = system: S. aureus; set-up: method as in Sonboli et al. ([2006]); settings: ref Sonboli et al. ([2006]); cited from earlier work
[17] = system: E. coli K1; set-up: method as in Gong et al. [2021]; settings: ref Gong et al. [2021], cited from earlier work
[18] = system: methicillin resistant Staphylococcus aureus (MRSA); set-up: method as in Zhao et al. [2023b]; settings: ref Zhao et al. [2023b]; cited from earlier work
[19] = target: α-glucosidase; set-up: method as in Omari et al. [2023]; settings: ref Omari et al. [2023]; cited from earlier work
[20] = target: α-amylase; set-up: method as in Omari et al. [2023]; settings: ref Omari et al. [2023]; cited from earlier work
[21] = ATCC25922, broth microdilution, read-out: MIC Escherichia coli
[22] = 24 h, 37 °C, read-out: MBC Listeria monocytogenes
[23] = ATCC13932, broth microdilution, read-out: MIC Listeria monocytogenes
[24] = 24 h, 37 °C, read-out: MBC Staphylococcus aureus
[25] = ATCC29213, broth microdilution, read-out: MIC Staphylococcus aureus
[26] = ATCC27853, broth microdilution, read-out: MIC Pseudomonas aeruginosa

T1 sequence (P00772 27-266): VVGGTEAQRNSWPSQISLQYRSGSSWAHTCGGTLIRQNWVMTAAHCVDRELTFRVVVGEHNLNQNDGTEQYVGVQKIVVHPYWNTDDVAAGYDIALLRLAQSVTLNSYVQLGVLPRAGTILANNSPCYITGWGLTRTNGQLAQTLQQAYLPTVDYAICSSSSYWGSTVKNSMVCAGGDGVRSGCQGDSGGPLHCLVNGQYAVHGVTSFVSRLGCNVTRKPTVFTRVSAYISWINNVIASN
T3 sequence (P53341 whole entry): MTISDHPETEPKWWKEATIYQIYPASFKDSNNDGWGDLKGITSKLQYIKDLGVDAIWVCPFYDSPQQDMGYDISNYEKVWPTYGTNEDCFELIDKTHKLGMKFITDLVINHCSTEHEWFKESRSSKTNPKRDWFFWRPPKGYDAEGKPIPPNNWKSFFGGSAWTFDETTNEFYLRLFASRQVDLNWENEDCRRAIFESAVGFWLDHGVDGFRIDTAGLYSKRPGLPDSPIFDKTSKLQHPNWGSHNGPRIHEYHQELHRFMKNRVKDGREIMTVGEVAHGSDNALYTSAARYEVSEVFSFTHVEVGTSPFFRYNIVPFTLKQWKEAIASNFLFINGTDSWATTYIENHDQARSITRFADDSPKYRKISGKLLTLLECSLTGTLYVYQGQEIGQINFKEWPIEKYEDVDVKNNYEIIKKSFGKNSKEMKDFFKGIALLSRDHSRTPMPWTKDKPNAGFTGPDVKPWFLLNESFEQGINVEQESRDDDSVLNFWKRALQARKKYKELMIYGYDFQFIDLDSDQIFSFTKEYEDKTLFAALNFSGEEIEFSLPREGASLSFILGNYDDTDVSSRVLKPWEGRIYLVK
T2 sequence (P06278 30-512): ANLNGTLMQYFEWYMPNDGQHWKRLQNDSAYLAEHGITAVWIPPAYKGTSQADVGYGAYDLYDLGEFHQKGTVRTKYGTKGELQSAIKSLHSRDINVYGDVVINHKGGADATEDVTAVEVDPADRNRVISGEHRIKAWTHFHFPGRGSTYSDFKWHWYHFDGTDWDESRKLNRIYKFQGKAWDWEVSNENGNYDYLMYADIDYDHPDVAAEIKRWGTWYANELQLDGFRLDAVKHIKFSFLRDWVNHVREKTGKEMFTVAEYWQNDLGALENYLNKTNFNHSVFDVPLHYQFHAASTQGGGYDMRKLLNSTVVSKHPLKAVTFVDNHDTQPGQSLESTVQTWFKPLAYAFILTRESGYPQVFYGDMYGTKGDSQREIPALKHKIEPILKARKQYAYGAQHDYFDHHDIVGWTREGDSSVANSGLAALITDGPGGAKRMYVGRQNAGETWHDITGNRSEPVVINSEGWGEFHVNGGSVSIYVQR
Sequence of tyrosinase (C7FF04 1-392): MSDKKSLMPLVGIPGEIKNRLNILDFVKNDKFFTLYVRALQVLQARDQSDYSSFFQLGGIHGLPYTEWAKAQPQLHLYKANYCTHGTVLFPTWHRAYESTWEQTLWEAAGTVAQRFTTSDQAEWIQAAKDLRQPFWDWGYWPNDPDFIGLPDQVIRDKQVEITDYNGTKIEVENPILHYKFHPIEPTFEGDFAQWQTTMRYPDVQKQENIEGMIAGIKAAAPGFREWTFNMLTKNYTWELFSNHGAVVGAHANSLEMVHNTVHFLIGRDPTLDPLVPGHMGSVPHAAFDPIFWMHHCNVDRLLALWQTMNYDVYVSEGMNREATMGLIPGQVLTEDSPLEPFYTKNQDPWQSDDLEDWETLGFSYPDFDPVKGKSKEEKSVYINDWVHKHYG

For C=C(C)[C@H]1CC=C(C)CC1 [limonene], which IC50 anti-tyrosinase [1] is on record?
Its IC50 anti-tyrosinase is 74.24 ± 2.06 µg/mL (≈ 545 µM).

What about the IC50 anti-elastase [2] of the same compound?
Its IC50 anti-elastase is 91.25 ± 3.06 µg/mL (≈ 670 µM).

Which “IC50 inhibition of protein denaturation” value [3] does the source give for CC(=O)Oc1ccccc1C(=O)O [acetylsalicylic acid] here?
Its value is 89.47 ± 2.64 %, v/v.

With CC(C)=C1CC[C@@H](C)CC1=O [Pulegone, pulegone] as the compound, how does the “MBC S. maltophilia” value [4] read?
The value was 5000 µg/mL (≈ 32800 µM).

And the “MIC S. maltophilia” value [4]?
Its value is 2500 µg/mL (≈ 16400 µM).

And the “inhibition zone S. maltophilia” value [4]?
Its value is 28 mm.

And the “inhibition zone Streptococcus equi subsp. equi” value [5]?
The value was 20 mm.

And the “inhibitory effects on P. aeruginosa, S. aureus, and K. pneumoniae” value [6]?
The value was 2.80–11.20 µl/mL.

What about the IC50 [7] of the same compound?
Its IC50 is 1200 µM.

What about the “activity against S. epidermidis” value [8] of the same compound?
Its value is 1.8 ± 0.3 mg/mL.

What about the IC50 [9] of the same compound?
Its IC50 is 774 µM.

What about the IC50 [10] of the same compound?
Its IC50 is 783 µM.

And the “MIC S. aureus” value [11]?
Its value is 5.85 μl/mL.

And the MBC [12]?
The MBC was 0.5 µg/mL (≈ 3.28 µM).

What about the MIC ([12]; ATCC25922, read-out: MIC Escherichia coli) of the same compound?
Its MIC is 0.25 µg/mL (≈ 1.64 µM).

What about the “MBC Listeria monocytogenes” value ([13]; 24 h, 37 °C) of the same compound?
The value was 0.125 µg/mL (≈ 0.821 µM).

And the MBC ([13]; read-out: MBC Listeria monocytogenes, 24 h, 37 °C)?
The MBC was 0.125 to 0.25 µg/mL (≈ 0.821 to 1.64 µM).

And the MIC ([13]; ATCC13932, read-out: MIC Listeria monocytogenes, broth microdilution)?
The MIC was 0.125 to 0.25 µg/mL (≈ 0.821 to 1.64 µM).

And the “MIC Listeria monocytogenes” value [13]?
The value was 0.125 µg/mL (≈ 0.821 µM).

What about the “MBC Staphylococcus aureus” value ([14]; 24 h, 37 °C) of the same compound?
The value was 0.25 µg/mL (≈ 1.64 µM).

What about the MBC ([14]; read-out: MBC Staphylococcus aureus, 24 h, 37 °C) of the same compound?
The MBC was 0.125 to 0.25 µg/mL (≈ 0.821 to 1.64 µM).

And the MIC ([14]; ATCC29213, read-out: MIC Staphylococcus aureus, broth microdilution)?
Its MIC is 0.125 to 0.25 µg/mL (≈ 0.821 to 1.64 µM).

And the “MIC Staphylococcus aureus” value [14]?
Its value is 0.125 µg/mL (≈ 0.821 µM).

What about the MBC [15] of the same compound?
Its MBC is 0.5 µg/mL (≈ 3.28 µM).

What about the MIC ([15]; ATCC27853, read-out: MIC Pseudomonas aeruginosa) of the same compound?
Its MIC is 0.5 µg/mL (≈ 3.28 µM).

And the “activity against S. aureus” value [16]?
Its value is 1.8 ± 0.3 mg/mL.

And the reduced biofilm formation ([17]; E. coli K1)?
Its reduced biofilm formation is 52.36%.

And the “MBC E. coli K1” value [17]?
Its value is 47350 µg/mL (≈ 311000 µM).

And the “MIC E. coli K1” value [17]?
Its value is 23680 µg/mL (≈ 156000 µM).

For O=C(N[C@H](CO)[C@H](O)c1ccc([N+](=O)[O-])cc1)C(Cl)Cl [Chloramphenicol, reference compound], which MBC ([12]; 37 °C) is on record?
Its MBC is 32 µg/mL (≈ 99 µM).

And the MIC [12, 21]?
The MIC was 8 µg/mL (≈ 24.8 µM).

What about the MBC [13, 22] of the same compound?
The MBC was 32 µg/mL (≈ 99 µM).

What about the MIC [13, 23] of the same compound?
The MIC was 16 µg/mL (≈ 49.5 µM).

And the MBC [14, 24]?
The MBC was 32 µg/mL (≈ 99 µM).

And the MIC [14, 25]?
Its MIC is 8 µg/mL (≈ 24.8 µM).

What about the MBC ([15]; 37 °C) of the same compound?
The MBC was 64 µg/mL (≈ 198 µM).

And the MIC [15, 26]?
The MIC was 64 µg/mL (≈ 198 µM).

Which “MIC S. aureus” value [11] does the source give for CC12CCC(CC1)C(C)(C)O2 [eucalyptol, reference compound] here?
Its value is 23.43 μl/mL.

Which IC50 [7] does the source give for CC(C)[C@@H]1CC[C@@H](C)CC1=O [Menthone, menthone] here?
Its IC50 is 968 µM.

And the “MBC MRSA” value [18]?
The value was 7.1 µg/mL (≈ 46 µM).

And the “MIC MRSA” value [18]?
The value was 3.5 µg/mL (≈ 22.7 µM).

And the IC50 [9]?
The IC50 was 860 µM.

And the IC50 [10]?
The IC50 was 703 µM.

What about the MBC ([12]; 37 °C) of the same compound?
The MBC was > 2 µg/mL.

What about the MIC [12, 21] of the same compound?
The MIC was 1 µg/mL (≈ 6.48 µM).

And the “MBC Listeria monocytogenes” value ([13]; 24 h, 37 °C)?
The value was 0.25 µg/mL (≈ 1.62 µM).

And the MBC [13, 22]?
Its MBC is 0.125 to 0.25 µg/mL (≈ 0.81 to 1.62 µM).

What about the MIC [13, 23] of the same compound?
The MIC was 0.125 to 0.25 µg/mL (≈ 0.81 to 1.62 µM).

And the “MIC Listeria monocytogenes” value [13]?
The value was 0.125 µg/mL (≈ 0.81 µM).

And the “MBC Staphylococcus aureus” value ([14]; 24 h, 37 °C)?
Its value is 0.125 µg/mL (≈ 0.81 µM).

And the MBC [14, 24]?
The MBC was 0.125 to 0.25 µg/mL (≈ 0.81 to 1.62 µM).

And the MIC [14, 25]?
Its MIC is 0.125 to 0.25 µg/mL (≈ 0.81 to 1.62 µM).

What about the “MIC Staphylococcus aureus” value [14] of the same compound?
Its value is 0.125 µg/mL (≈ 0.81 µM).

And the MBC ([15]; 37 °C)?
Its MBC is 1 µg/mL (≈ 6.48 µM).

And the MIC [15, 26]?
Its MIC is 0.5 µg/mL (≈ 3.24 µM).

Which “IC50 α-glucosidase” value [19] does the source give for CC1=CCC2CC1C2(C)C (stereo not drawn) [α-pinene] here?
The value was 95.62 ± 4.11 µg/mL (≈ 702 µM).

What about the “IC50 α-amylase” value [20] of the same compound?
Its value is 82.12 ± 4.52 µg/mL (≈ 603 µM).

And the IC50 ([2]; read-out: IC50 anti-elastase (converted))?
The IC50 was 471 µM.
